According to US8178506B2, “Oligomeric compounds and compositions for use in modulation of small non-coding RNAs” (Regulus Therapeutics Inc., priority 2003, dated 2012):
In the oligonucleotide strings, read from the 5' end, every base follows the letter of its sugar. An asterisk marks phosphorothioate; unmarked linkages are phosphodiester. Other units and linkages are bracketed, terminal groups are in braces. A string of capitals states the bases alone. e = 2'-O-(2-methoxyethyl) (MOE); [5mC] = 5-methylcytosine

Assays:
[1] = test system: mir-143 pri-miRNA; test: mir-143 pri-miRNA levels in differentiating adipocytes (real-time RT-PCR); format: cell-based, human; conditions: differentiated adipocytes 9 days vs 3 days post-differentiation
Description: Here, oligomeric compounds targeting mir-143 were transfected into preadipocytes which were then induced to differentiate, in order to assess the effects of these compounds on mir-143 pri-miRNA levels during differentiation. mir-143 pri-miRNA levels were assessed on days 3 and 9 after differentiation.
In addition to the uniform 2′-MOE phosphorothioate oligomeric compound ISIS Number 327901 (SEQ ID NO: 319) targeting mature mir-143, a 5-10-7 gapmer oligomeric compound, ISIS Number 340927 (SEQ ID NO: 319), was designed to target mature mir-143. […] ISIS 342672 and ISIS 342673 are uniform 2′-MOE phosphorothioate oligomeric compounds 22 nucleotides in length. ISIS Number 342677 (SEQ ID NO: 789) and ISIS Number 342678 (SEQ ID NO: 758) are the corresponding 5-10-7 scrambled 2′-MOE gapmer oligomeric compounds. All cytidine residues are 5-methylcytidines. […]
These compounds were transfected into differentiating adipocytes and their effects on levels of the mir-143 pri-miRNA molecule were assessed in pre-adipocytes vs. differentiated adipocytes, by real-time RT-PCR using the primer/probe set specific for the mir-143 pri-miRNA (forward primer=ISIS 339314, SEQ ID NO: 786; reverse primer=ISIS 342897, SEQ ID NO.: 787; probe=ISIS 342898, SEQ ID NO.: 788). […]

[2] = test system: mir-23b miRNA; test: pGL3-mir-23b sensor luciferase assay in HeLa cells; format: cell-based, human; conditions: pGL3-mir-23b sensor-expressing HeLa cells
Source text: In order to assess the ability of miRNAs to bind predicted miRNA binding sites and regulate the expression of the luciferase reporter, in some embodiments, expression systems based on the pGL3-Control (Promega Corp., Madison Wis.) reporter vector and comprising either a mir-15a, mir-21, or a mir-23b miRNA binding site were developed and used in transient transfections of HeLa cells to determine whether the endogenous mir-15a, mir-21, or mir-23b miRNAs, respectively, could repress luciferase reporter gene expression.
The pGL3-mir-23b sensor plasmid was created by cloning the sequence ([…]; SEQ ID NO: 307), representing a sequence complementary to the mir-23b miRNA, into the Xba site of the pGL3-Control plasmid, placing the potential miRNA-binding site in the 3′UTR of the luciferase reporter. This reporter plasmid was used to transfect HeLa cells and it was observed that the endogenous mir-23b miRNA was able to inhibit luciferase expression from the pGL3-mir-23b sensor plasmid. Thus, to further evaluate the ability of the mir-23b miRNA to bind this target site encoded by the pGL3-mir-23b sensor plasmid, and to assess the ability of oligomeric compounds to interfere with mir-23b-mediated silencing, pGL3-mir-23b sensor-expressing HeLa cells were treated with varying concentrations (1.3-, 5- or 20 nM) of the following oligomeric compounds: ISIS Number 327889 (SEQ ID NO: 307), a phosphorothioate uniform 2′-MOE oligomeric compound, and ISIS Number 340925 (SEQ ID NO: 307), a 2′-MOE 5-10-8 gapmer oligomeric compound, both targeting mir-23b. The uniform 2′-MOE phosphorothioate oligomeric compound ISIS Number 327924 (SEQ ID NO: 342) targeting an unrelated miRNA (mir-129-2) was used as a negative control. The data are the average of three trials, and are presented in Table 43 as relative luciferase activity (normalized to pRL-CMV luciferase plasmid only, not treated with oligomeric compound).

**Q.** “TGAGCTACAGTGCTTCATCTCA [ISIS 327901] (chemistry not given here) [uniform 2′-MOE PS; targets mir-143]” was tested. Which “levels of the mir-143 pri-miRNA” value [1] did it give?
**A.** approximately 4 fold

**Q.** Which Fold change luciferase ([2]; 1.3 nM) does the source give for “327889 (antisense eG*eT*eG*eG*eT*eA*eA*eT*e[5mC]*e[5mC]*e[5mC]*eT*eG*eG*e[5mC]*eA*eA*eT*eG*eT*eG*eA*eT) [compound 327889]” here?
**A.** 3.75

**Q.** And the Fold change luciferase ([2]; 5 nM)?
**A.** 3.46

**Q.** What about the Fold change luciferase ([2]; 20 nM) of the same substance?
**A.** 7.40
